# Laboratory results published in ChEMBL document CHEMBL4359884, “Design, synthesis and biological evaluation of novel pleuromutilin derivatives possessing acetamine phenyl linker” (Eur J Med Chem, 2019).
# Experiments:
# Staphylococcus aureus [1] = assay: Antibacterial activity against Staphylococcus aureus AD3 assessed as bacterial growth inhibition incubated for 24 hrs by broth dilution method; assay type: functional; details: AD3, 24 h
# Staphylococcus aureus [2] = assay: Antibacterial activity against Staphylococcus aureus ATCC 29213 assessed as bacterial growth inhibition incubated for 24 hrs by broth dilution method; assay type: functional; details: ATCC 29213, 24 h
# Escherichia coli [3] = assay: Antibacterial activity against Escherichia coli ATCC 25922 assessed as bacterial growth inhibition incubated for 24 hrs by broth dilution method; assay type: functional; details: ATCC 25922, 24 h
# Escherichia coli [4] = assay: Antibacterial activity against Escherichia coli 9-1 assessed as bacterial growth inhibition incubated for 24 hrs by broth dilution method; assay type: functional; details: 9-1, 24 h
# Staphylococcus aureus [5] = assay: Antibacterial activity against methicillin-resistant Staphylococcus aureus ATCC 43300 assessed as bacterial growth inhibition incubated for 24 hrs by broth dilution method; assay type: functional; details: ATCC 43300, 24 h
# [6] = Clearance in ICR mouse at 10 mg/kg, iv by LC-MS/MS analysis; assay type: ADME, organism-based; details: in vivo
# Staphylococcus aureus [7] = assay: (§1) Bactericidal activity against methicillin-resistant Staphylococcus aureus ATCC 43300 assessed as reduction in colony forming unit at 4 times MIC incubated for 3 hrs followed by compound dilution with saline and then incubated for 20 hrs on MH agar plate by time-kill kinetics assay; assay type: functional
# [8] = Tmax in ICR mouse at 10 mg/kg, iv by LC-MS/MS analysis; assay type: ADME, organism-based; details: in vivo
# Staphylococcus aureus [9] = assay: Antibacterial activity against methicillin-resistant Staphylococcus aureus infected in neutropenic thigh infection ICR/Swiss mouse model assessed reduction in colony forming unit in thigh at 20 mg/kg, iv administered 2 hrs post infection and measured at 24 hrs after drug dosage; assay type: functional
# Staphylococcus aureus [10] = assay: Antibacterial against methicillin-resistant Staphylococcus aureus ATCC 43300 assessed as post antibiotic effect time at 4 times MIC incubated for 2 hrs followed by compound washout and then incubated for 20 hrs onto MH agar plate; assay type: functional
# [11] = AUC (0 to t) in ICR mouse at 10 mg/kg, iv by LC-MS/MS analysis; assay type: ADME, organism-based; details: in vivo
# Staphylococcus aureus [12] = assay: Antibacterial against methicillin-resistant Staphylococcus aureus ATCC 43300 assessed as post antibiotic effect time at 2 times MIC incubated for 1 hr followed by compound washout and then incubated for 20 hrs onto MH agar plate; assay type: functional
# [13] = Half life in ICR mouse at 10 mg/kg, iv by LC-MS/MS analysis; assay type: ADME, organism-based; details: in vivo
# [14] = MRT in ICR mouse at 10 mg/kg, iv by LC-MS/MS analysis; assay type: ADME, organism-based; details: in vivo
# Staphylococcus aureus [15] = assay: Antibacterial activity against methicillin-resistant Staphylococcus aureus infected in systemic infection ICR mouse model assessed as animal survival rate at 30 mg/kg, iv relative to control; assay type: functional
# Staphylococcus aureus [16] = assay: Antibacterial against methicillin-resistant Staphylococcus aureus ATCC 43300 assessed as post antibiotic effect time at 4 times MIC incubated for 1 hr followed by compound washout and then incubated for 20 hrs onto MH agar plate; assay type: functional
# [17] = AUC (0 to infinity) in ICR mouse at 10 mg/kg, iv by LC-MS/MS analysis; assay type: ADME, organism-based; set-up: dose 10 mg/kg, route intravenous, time infinity; details: in vivo
# Staphylococcus aureus [18] = assay: Bactericidal activity against methicillin-resistant Staphylococcus aureus ATCC 43300 assessed as reduction in bacterial growth at 4 times MIC incubated for 24 hrs followed by compound dilution with saline and then incubated for 20 hrs on MH agar plate by time-kill kinetics assay relative to control; assay type: functional; set-up: scale not given: the % may be the effect or the level left
# Staphylococcus aureus [19] = assay: Antibacterial against methicillin-resistant Staphylococcus aureus ATCC 43300 assessed as post antibiotic effect time at 2 times MIC incubated for 2 hrs followed by compound washout and then incubated for 20 hrs onto MH agar plate; assay type: functional
# [20] = Cmax in ICR mouse at 10 mg/kg, iv by LC-MS/MS analysis; assay type: ADME, organism-based; set-up: dose 10 mg/kg, route intravenous; details: in vivo
# Staphylococcus aureus [21] = assay: Bactericidal activity against methicillin-resistant Staphylococcus aureus ATCC 43300 assessed as reduction in colony forming unit at 4 times MIC incubated for 24 hrs followed by compound dilution with saline and then incubated for 20 hrs on MH agar plate by time-kill kinetics assay; assay type: functional
# Staphylococcus aureus [22] = assay: as §1, with “assay relative to control” for “assay”; assay type: functional; set-up: scale not given: the % may be the effect or the level left
SMILES,MIC (Staphylococcus aureus [1]),MIC (Staphylococcus aureus [2]),MIC (Escherichia coli [3]),MIC (Escherichia coli [4]),MIC (Staphylococcus aureus [5]),other results
C=C[C@]1(C)C[C@@H](OC(=O)CSc2ccccc2NC(=O)CN2CCN(c3cccc(Cl)c3)CC2)[C@]2(C)[C@H](C)CC[C@]3(CCC(=O)[C@H]32)[C@@H](C)[C@@H]1O,2 µg/mL,1 µg/mL,> 32 µg/mL,> 32 µg/mL,1 µg/mL,
C=C[C@]1(C)C[C@@H](OC(=O)CSc2ccccc2NC(=O)CN2CCC(O)C2)[C@]2(C)[C@H](C)CC[C@]3(CCC(=O)[C@H]32)[C@@H](C)[C@@H]1O (some centres not stated),0.25 µg/mL,0.25 µg/mL,> 32 µg/mL,> 32 µg/mL,0.125 µg/mL,
C=C[C@]1(C)C[C@@H](OC(=O)CSc2ccccc2NC(=O)CN2CCN(c3cccc(C)c3)CC2)[C@]2(C)[C@H](C)CC[C@]3(CCC(=O)[C@H]32)[C@@H](C)[C@@H]1O,> 8 µg/mL,> 8 µg/mL,> 32 µg/mL,> 32 µg/mL,> 8 µg/mL,
C=C[C@]1(C)C[C@@H](OC(=O)CSc2ccccc2NC(=O)CN2CCOCC2)[C@]2(C)[C@H](C)CC[C@]3(CCC(=O)[C@H]32)[C@@H](C)[C@@H]1O,0.125 µg/mL,0.06 µg/mL,> 32 µg/mL,> 32 µg/mL,0.06 µg/mL,clearance [6]: 361 mL/min/kg; Activity (Staphylococcus aureus [7]): 2.19 log10CFU/ml; Tmax [8]: 4.98 min; Activity (Staphylococcus aureus [9]): 1.4 log10CFU/ml; Time (Staphylococcus aureus [10]): 3.47 h; AUC(0-t) [11]: 470 ng·h/mL; Time (Staphylococcus aureus [12]): 1.62 h; half-life [13]: 413 min; MRT [14]: 36.6 min; Activity (Staphylococcus aureus [15]): 60%; Time (Staphylococcus aureus [16]): 2.05 h; AUC(0-inf) [17]: 480 ng·h/mL; Activity (Staphylococcus aureus [18]): 100%; Time (Staphylococcus aureus [19]): 2.64 h; Cmax [20]: 1760 ng/mL
C=C[C@]1(C)C[C@@H](OC(=O)CSc2ccccc2NC(=O)CN2CCN(c3ccc([N+](=O)[O-])cc3)CC2)[C@]2(C)[C@H](C)CC[C@]3(CCC(=O)[C@H]32)[C@@H](C)[C@@H]1O,2 µg/mL,4 µg/mL,> 32 µg/mL,> 32 µg/mL,2 µg/mL,
C=C[C@]1(C)C[C@@H](OC(=O)CSc2ccccc2NC(=O)CN2CCN(c3ccccc3F)CC2)[C@]2(C)[C@H](C)CC[C@]3(CCC(=O)[C@H]32)[C@@H](C)[C@@H]1O,1 µg/mL,8 µg/mL,> 32 µg/mL,> 32 µg/mL,2 µg/mL,
C=C[C@]1(C)C[C@@H](OC(=O)CSc2ccccc2NC(=O)CN2CCN(c3cccc([N+](=O)[O-])c3)CC2)[C@]2(C)[C@H](C)CC[C@]3(CCC(=O)[C@H]32)[C@@H](C)[C@@H]1O,4 µg/mL,4 µg/mL,> 32 µg/mL,> 32 µg/mL,4 µg/mL,
C=C[C@]1(C)C[C@@H](OC(=O)CSc2ccccc2NC(=O)CN2CCN(c3ccccc3O)CC2)[C@]2(C)[C@H](C)CC[C@]3(CCC(=O)[C@H]32)[C@@H](C)[C@@H]1O,0.5 µg/mL,2 µg/mL,> 32 µg/mL,> 32 µg/mL,1 µg/mL,
C=C[C@]1(C)C[C@@H](OC(=O)CSc2ccccc2NC(=O)CN2CCN(c3ccccc3[N+](=O)[O-])CC2)[C@]2(C)[C@H](C)CC[C@]3(CCC(=O)[C@H]32)[C@@H](C)[C@@H]1O,> 8 µg/mL,> 8 µg/mL,> 32 µg/mL,> 32 µg/mL,4 µg/mL,
C=C[C@]1(C)C[C@@H](OC(=O)CSc2ccccc2NC(=O)CN2CCCC2)[C@]2(C)[C@H](C)CC[C@]3(CCC(=O)[C@H]32)[C@@H](C)[C@@H]1O,0.125 µg/mL,0.125 µg/mL,> 32 µg/mL,> 32 µg/mL,0.25 µg/mL,
C=C[C@]1(C)C[C@@H](OC(=O)CSc2ccccc2NC(=O)CN2CCN(c3ccc(OC)cc3)CC2)[C@]2(C)[C@H](C)CC[C@]3(CCC(=O)[C@H]32)[C@@H](C)[C@@H]1O,0.5 µg/mL,4 µg/mL,> 32 µg/mL,> 32 µg/mL,2 µg/mL,
C=C[C@]1(C)C[C@@H](OC(=O)CSCCN(CC)CC)[C@]2(C)[C@H](C)CC[C@]3(CCC(=O)[C@H]32)[C@@H](C)[C@@H]1O [TIAMULIN],0.5 µg/mL,1 µg/mL,,,0.5 µg/mL,Activity (Staphylococcus aureus [7]): 1.54 log10CFU/ml; Activity (Staphylococcus aureus [9]): 0.59 log10CFU/ml; Time (Staphylococcus aureus [10]): 2.04 h; Time (Staphylococcus aureus [12]): 1.53 h; Activity (Staphylococcus aureus [15]): 20%; Time (Staphylococcus aureus [16]): 1.9 h; Activity (Staphylococcus aureus [21]): 1.9 log10CFU/ml; Time (Staphylococcus aureus [19]): 1.65 h; Activity (Staphylococcus aureus [22]): 97%
